Converted amounts (≈) assume the structure as drawn. “And” between values parts separate entries of the source, which are not always exact repeats. Equal values may be shown once. Read-outs that look alike come from different tables or passages of the source. Where a SMILES comes first, the peptide text is derived from it. Bridges are numbered along the chain shown (N, C = ends).

In data set [1] the test system is E. tarda. It counts as cell-based, Edwardsiella tarda. The protocol: (§1) All tests were conducted in triplicate.
Data set [2] relates to E. tarda. The experiment in a line: Thermal stability (residual antibacterial activity, inhibition zone). It counts as physicochemical, Edwardsiella tarda. To be noted: incubated 1 h at 100 °C; N6 128 μg/mL; inhibition zone method vs untreated peptide; triplicate. Here is the method:
To evaluate the thermal stability of peptides, N6 and N6NH2 were incubated for 1 h at 4, 20, 40, 60, 80 and 100 °C. To measure the pH stability, peptides were incubated for 3 h in 100 mM glycine-HCl buffer (pH 2.0), sodium acetate buffer (pH 4.0), sodium phosphate buffer (pH 6.0), Tris-HCl buffer (pH 8.0) or glycine-NaOH buffer (pH 10.0). In addition, peptides were incubated for 4 h at 37 °C in pepsin (3,000 U/mg, pH 2.0) and trypsin (250 U/mg, pH 8.0) (10:1, w/w) solutions, respectively. […] After treatment, 30 μL of solutions were taken out to determine the antibacterial activity of peptides against E. tarda by the inhibition zone method. The untreated peptides were used as the control. All tests were conducted in triplicate.

For data set [3], the system named is E. tarda genomic DNA. The experiment in a line: Competitive binding of genomic DNA with ethidium bromide. Set-up: species or system Edwardsiella tarda. The note with it: peptide 160 μg/mL added to DNA (10 μg)-EB; 30 min at 37 °C. Here is the method: E. tarda genomic DNA was dissolved in TE buffer to a concentration of 100 μg/mL; 1.5 μL of EB (100 μg/mL) solution was mixed with 100 μL of DNA solution and then added into 96-well plates. The DNA-EB mixture was incubated in the dark at 37 °C for 10 min. Varying concentrations of peptides (0, 40, 80, and 160 μg/mL, 100 μL) were then added to the DNA-EB solution (100 μL), and the fluorescence spectra were measured for each test solution after 30 min of incubation at 37 °C in the dark. Infinite M200 PRO was used for sample determination at 535 nm, and the spectra were recorded from 550 to 750 nm.
To determine the competitive binding of EB against peptides with bacterial DNA, 100 μL of DNA (50 μg/mL) solution was mixed with 100 μL of peptide solution (80 μg/mL) and incubated at 37 °C for 10 min. Then aliquots of stock solution of EB (0, 25, 50, and 100 μg/mL, 1.5 μL) were added to the fixed DNA-peptide solution and incubated for 30 min at 37 °C in the dark. The fluorescence spectra were measured as described above.

Data set [4] has as its system E. tarda. The experiment in a line: Time-kill curves. To be noted: 10^5 CFU/mL, 28 °C, 200 rpm, plate count every 2 h. It counts as cell-based, Edwardsiella tarda. Here is the method: Time–kill curves for N6 and N6NH2 were determined against E. tarda. In brief, the mid-log phase bacterial cells (10^5 CFU/mL) were mixed with different concentrations of peptides (1 × and 2 × and 4 × MIC) and cultured at 28 °C (200 rpm). Samples of 100 μL were taken from the mixture at intervals of 2 h, continuously diluted, and counted on the plate.

For another data set, the system named is E. tarda cells. The data set is described as follows: TEM ultrastructure. The note with it: 4 × MIC for 2 h, 1 × 10^8 CFU/mL. It counts as cell-based, Edwardsiella tarda. Here is the method:
Mid-log phase E. tarda cells (1 × 10^8 CFU/mL) were incubated with 4 × MIC N6 or N6NH2 for 2 h at 37 °C. The bacterial cells were then centrifuged, washed three times with 0.1 M PBS (pH 7.2) and fixed overnight at 4 °C with 2.5% glutaraldehyde. After washing twice with PBS, the cells were post-fixed with 1% osmium tetroxide (OsO4) for 2 h, dehydrated in a graded ethanol series (from 50% to 100%) for 15 min each time and dried by CO2. The cell samples were sputtered with gold-palladium and observed on a QUANTA200 electron microscopy (FEI, Philips, The Netherlands).
The bacterial cells were treated with peptides as described above, fixed with 2.5% glutaraldehyde at 4 °C overnight and post-fixed with 1% OsO4 for 1 h. After washing three times with PBS, the cells were dehydrated with a graded acetone series (50%, 70%, 85%, 95% and 100%, for 7 min each time) and immersed in mixtures of acetone and resin (3:1, 1:1 and 1:3, 40 min each time). The samples were infiltrated with a pure epoxy resin overnight, embedded in capsules containing embedding medium and polymerized at 45 °C for 3 h and at 65 °C for 24 h, respectively. Thin sections were cut using an ultramicrotome, stained with 1% uranyl acetate and examined by a JEM1400 (JEDL, Tokyo, Japan).

Data set [5] relates to Escherichia coli, S. typhimurium, S. enteritidis and S. pullorum. The data set is described as follows: organism not typed. It counts as cell-based. Here is the method: as §1
The next data set deals with Staphylococcus hyicus. The experiment in a line: microbe, parasite or virus in culture. It counts as cell-based. The protocol:
as §1

The test system of another data set is E. coli CVCCO157. To be noted: broth microdilution, MHB, 1 × 10^5 CFU/mL, 37 °C 18–24 h, n = 3; some N6 data from ref 19.
For data set [6], the system named is E. tarda genomic DNA. The experiment in a line: Gel migration (DNA binding) assay. On the set-up: species or system Edwardsiella tarda. To be noted: 0.25 μg DNA, 10 min at room temperature, 0.7% agarose gel; mass ratios 0–10 tested. The protocol: The genomic DNA of E. tarda or O. niloticus was incubated for 10 min at room temperature with different concentrations of N6 and N6NH2 in binding buffer (5% glycerol, 10 mM Tris-HCl, pH 8.0, 20 mM KCl, 1 mM EDTA, 1 mM dithiothreitol and […] BSA). The mass ratios of peptides and DNA were 0, 0.5, 1, 2, 4, 6, 8, and 10, respectively. The migration of DNA was evaluated by electrophoresis on a 0.7% agarose gel.

For data set [7], the system named is Staphylococcus aureus ATCC43300.
[8] abbreviates: broth microdilution, MHB, 1 × 10^5 CFU/mL, 37 °C 18–24 h, n = 3, some N6 data from ref 19.

For the compound `CC(C)[C@@H]1NC(=O)CNC(=O)[C@H](CC(N)=O)NC(=O)[C@H](CCCNC(=N)N)NC(=O)[C@H](Cc2ccc(O)cc2)NC(=O)[C@H](C(C)C)NC(=O)[C@@H](NC(=O)[C@@H](NC(=O)[C@H](CC(N)=O)NC(=O)[C@H](Cc2c[nH]c3ccccc23)NC(=O)[C@H](C)NC(=O)[C@H](Cc2ccccc2)NC(=O)CN)C(C)C)CSSC[C@@H](C(=O)N[C@@H](Cc2c[nH]cn2)C(=O)N[C@@H](CCCNC(=N)N)C(=O)N[C@@H](CCCNC(=N)N)C(=O)N[C@@H](C)C(=O)N[C@@H](CC(N)=O)C(=O)O)NC(=O)[C@H](C(C)C)NC(=O)[C@H](CCCNC(=N)N)NC1=O` [Peptide N6] (H-GFAWNVCVYRNGVRVCHRRAN-OH; disulfide 7-16; N-terminus assumed), the MBC with E. tarda [1] amounted to 12.8 µg/mL (≈ 5.17 µM). The “decrease of antimicrobial activity against E. tarda after heating” value with E. tarda [2] is given as 6.7%. For the same compound, the “competition with EB for binding to E. tarda genomic DNA (quenching of DNA-EB fluorescence)” value in the data set with E. tarda genomic DNA [3] is “the binding affinity of N6 was stronger than that of N6NH2”. The MIC with S. aureus ATCC546 (ATCC546) is 1.62 µM; against S. aureus ATCC546 (setting [8]), 4 µg/mL; in the data set with S. hyicus 15095, 6.46 µM; in the data set on S. hyicus 15095 (setting [8]) it was 16 µg/mL; in data set [5], 0.25 to 4 µg/mL; against Staphylococcus hyicus, 16 to 64 µg/mL. The MIC is 0.4 µM against E. coli CVCC1515 (CVCC1515); 1 µg/mL against E. coli CVCC1515 (setting [8]); 0.5 μg/mL and 0.2 μM against E. coli CVCCO157; 0.8 µM against S. typhimurium ATCC14028 (ATCC14028); 2 µg/mL against S. typhimurium ATCC14028 (setting [8]); 0.2 µM with Escherichia coli CVCC195 (CVCC195). For the same compound, the MIC in the data set on Escherichia coli CVCC195 (setting [8]) was 0.5 µg/mL; in the data set on S. pullorum CVCC1789 (CVCC1789), 0.2 µM; in the data set with S. pullorum CVCC1789 (setting [8]), 0.5 µg/mL; in data set [7] (ATCC43300), 6.46 µM; in [7] (setting [8]), 16 µg/mL. Besides, the “time at which bacteria were killed (time-kill curve)” value in the data set on E. tarda [4] (2 × MIC) and in the data set on E. tarda [4] (4 × MIC) was ≤ 2 h throughout. The “abnormal cells (TEM)” value in the data set with E. tarda cells was “over 95%”. For the same compound, the “mass ratio of peptide and DNA at which migration of E. tarda genome DNA is inhibited” value in the data set on E. tarda genomic DNA [6] was “greater than 1”.

(Values after publication PMC7766155, “Improved Stability and Activity of a Marine Peptide-N6NH2 against Edwardsiella tarda and Its Preliminary Application in Fish” (Marine Drugs, 2020).)
